Assay [1] in a line: cytotoxicity in MIN6 insulinoma cells, dose response, cytotoxicity control, cell-based, mouse insulinoma (AID 2122).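 Note: confirmatory high-throughput counterscreen run to flag cytotoxic compounds; mouse MIN-6 beta cells carrying an insulin promoter eGFP reporter.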 The format is functional.
For another assay, the target named is Galanin receptor type 2 (Homo sapiens, UniProt O43603). Description: Dose Response cell-based high-throughput screening assay to identify antagonists of galanin receptor 2 (GALR2). [Related pubchem assays: 828, 866 ]. It is filed as functional.
Assay [2] in a line: insulin promoter down-regulators in MIN6 cells, imaging, high-content screening, mouse beta cells (AID 1628). The format is functional.
A short description of assay [3]: control 3'UTR Renilla luciferase suppression, dose response, counter-screen for Shn3 inhibitor project, cell-based, Clone20-Shn3RL, cherry-picked (AID 624133). It is filed as functional. (Counterscreens check selectivity or assay interference.)
Assay [4] in a line: Shn3 3'UTR reporter inhibitors, dose response, cell-based, Clone20 osteoblasts, firefly luciferase, cherry-picked (AID 624132).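 Note: firefly luciferase luminescence from reporter carrying the Shn3 3'UTR in osteoblasts.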 It is filed as functional.
Assay [5] in a line: cytotoxicity in HEK-293T cells, dose response, cytotoxicity control for TCR NF-kB inhibitor project, luminescence, T-cell screen hits (AID 489026).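 Note: cells exposed to compound about 14 hours before the viability readout.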 The format is functional, cell-based.
The test system of assay [6] is HEK293. Description: cells. The format is functional, cell-based. Conditions: Homo sapiens.
For assay [7], the system named is BJ. Put plainly: cytotoxicity toward BJ-TERT-LT-ST fibroblasts, dose response, cell-based, RAS-independent, luminescence (AID 1935).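 Note: BJ fibroblasts immortalized with TERT plus LT and ST oncogenes.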 The format is functional. Conditions: Homo sapiens.
Assay [8] in a line: NIH-3T3 fibroblast cytotoxicity, dose response, cytotoxicity control, cell-based, fluorescence, Alamar Blue, secondary assay (AID 2327).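 Note: NIH-3T3 mouse fibroblasts cultured with fluconazole at 8 µg/mL.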 The format is functional.
For assay [9], the target named is T1, Apoptotic protease-activating factor 1 (Homo sapiens, UniProt O14727).
T1 sequence (O14727 whole entry): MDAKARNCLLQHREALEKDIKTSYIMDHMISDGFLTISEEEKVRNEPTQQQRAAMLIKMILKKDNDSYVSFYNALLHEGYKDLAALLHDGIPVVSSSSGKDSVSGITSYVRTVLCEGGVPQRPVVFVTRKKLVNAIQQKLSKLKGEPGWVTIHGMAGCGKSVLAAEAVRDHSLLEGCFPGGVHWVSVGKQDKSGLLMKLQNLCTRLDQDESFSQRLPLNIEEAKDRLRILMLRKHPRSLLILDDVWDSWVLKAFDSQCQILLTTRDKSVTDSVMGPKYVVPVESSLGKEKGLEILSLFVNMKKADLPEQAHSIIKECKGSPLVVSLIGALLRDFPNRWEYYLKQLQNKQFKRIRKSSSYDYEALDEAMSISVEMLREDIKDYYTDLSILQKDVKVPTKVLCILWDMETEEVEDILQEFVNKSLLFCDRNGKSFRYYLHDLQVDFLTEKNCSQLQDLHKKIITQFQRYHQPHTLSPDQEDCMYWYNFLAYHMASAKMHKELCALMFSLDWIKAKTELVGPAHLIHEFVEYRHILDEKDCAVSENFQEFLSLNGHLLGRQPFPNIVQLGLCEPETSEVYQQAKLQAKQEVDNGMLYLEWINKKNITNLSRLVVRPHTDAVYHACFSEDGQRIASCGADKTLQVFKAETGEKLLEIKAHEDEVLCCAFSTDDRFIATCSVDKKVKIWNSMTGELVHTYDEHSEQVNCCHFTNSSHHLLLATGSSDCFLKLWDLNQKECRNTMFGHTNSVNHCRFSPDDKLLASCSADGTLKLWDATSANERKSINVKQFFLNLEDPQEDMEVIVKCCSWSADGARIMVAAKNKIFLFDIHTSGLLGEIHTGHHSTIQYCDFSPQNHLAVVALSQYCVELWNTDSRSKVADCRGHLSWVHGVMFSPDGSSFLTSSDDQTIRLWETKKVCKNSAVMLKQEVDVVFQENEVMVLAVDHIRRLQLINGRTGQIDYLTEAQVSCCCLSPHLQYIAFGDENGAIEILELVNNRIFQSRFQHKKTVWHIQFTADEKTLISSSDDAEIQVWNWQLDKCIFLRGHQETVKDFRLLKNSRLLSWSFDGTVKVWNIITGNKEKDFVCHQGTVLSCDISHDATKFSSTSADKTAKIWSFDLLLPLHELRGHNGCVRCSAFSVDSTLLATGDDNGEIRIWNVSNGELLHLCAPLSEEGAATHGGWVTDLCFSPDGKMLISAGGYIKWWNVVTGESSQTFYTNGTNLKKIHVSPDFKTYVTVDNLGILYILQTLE
It is filed as functional.

The target of the next assay is CAAX prenyl protease 1 (Saccharomyces cerevisiae S288c, UniProt P47154). Description: Ste24 protease inhibitors, dose response, biochemical, S. cerevisiae, plate reader, cherry-pick (AID 488815).
Assay [10] deals with HEK293. Description: NOD1 signaling inhibitors, primary screen, cell-based, luminescence, uHTS (AID 1578). The format is functional. Conditions: Homo sapiens.
Assay [11] can be described thus: cytotoxicity toward DRD oncogenic fibroblasts, dose response, cell-based, non-viral oncogenic, luminescence (AID 1934). It is filed as functional. Conditions: Homo sapiens.
Assay [12] relates to HEK293. Put plainly: cells. Conditions: Homo sapiens. The format is functional, cell-based. This is another data set of the same source.
Assay [13] has as its system BJ. Description: cytotoxicity toward BJ-TERT fibroblasts, dose response, cell-based, RAS-independent, luminescence (AID 1933). It is filed as functional. Conditions: Homo sapiens.
In assay [14] the target is Nucleotide-binding oligomerization domain-containing protein 2 (Homo sapiens, UniProt Q9HC29). Put plainly: NOD2 signaling inhibitors, cell-based, luminescence, uHTS, HEK293 (AID 1566). The format is functional.
The target of another assay is T2, CAAX prenyl protease 2 (Saccharomyces cerevisiae S288c, UniProt Q03530).
T2 sequence (Q03530 whole entry): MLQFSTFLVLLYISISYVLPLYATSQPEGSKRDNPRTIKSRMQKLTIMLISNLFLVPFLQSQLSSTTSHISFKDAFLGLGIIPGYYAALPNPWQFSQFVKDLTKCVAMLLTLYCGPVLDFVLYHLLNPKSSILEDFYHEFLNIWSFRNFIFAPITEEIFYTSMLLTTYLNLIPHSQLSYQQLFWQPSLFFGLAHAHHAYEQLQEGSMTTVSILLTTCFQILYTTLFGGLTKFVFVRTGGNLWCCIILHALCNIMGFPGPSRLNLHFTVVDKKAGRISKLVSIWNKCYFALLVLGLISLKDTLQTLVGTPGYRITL
It is filed as biochemical.

For assay [15], the target named is T3, Ubiquitin-conjugating enzyme E2 N (Homo sapiens, UniProt P61088).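 Note: Dose-response confirmation in a TR-FRET assay detecting UBC13-driven polyubiquitin chain formation, inhibition measured.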
T3 sequence (P61088 whole entry): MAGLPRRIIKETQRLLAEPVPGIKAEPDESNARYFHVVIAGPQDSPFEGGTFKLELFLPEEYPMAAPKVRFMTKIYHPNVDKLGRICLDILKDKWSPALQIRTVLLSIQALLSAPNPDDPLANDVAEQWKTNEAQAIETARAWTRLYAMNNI
It is filed as functional.

Assay [16] deals with Heat shock protein HSP 90-alpha (Homo sapiens, UniProt P07900). It is filed as functional, organism-based.
The subject of assay [17] is BJ. Description: cells. It is filed as functional, cell-based. The note with it: Homo sapiens.
Another assay has as its system INS1. Description: beta cell apoptosis inhibitors, cytokine rescue, dose response, luminescence, retest (AID 449756).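 Note: cell death triggered by IL-1 beta plus TNF-alpha plus IFN-gamma mixture; protective hits raise ATP signal compared with cytokine alone wells.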 It is filed as functional, cell-based. Conditions: Rattus norvegicus.
The test system of assay [18] is HEK293. Description: cells. It is filed as functional, cell-based. The note with it: Homo sapiens. The source holds these as a separate data set.
The test system of assay [19] is BJ. Put plainly: cytotoxicity toward Ras-transformed BJeLR fibroblasts, dose response, cell-based, alamar blue fluorescence, cherrypicked samples (AID 2631).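 Note: confirmatory dose-response assay in RAS-dependent BJ fibroblasts engineered with TERT, LT and ST, with cytotoxicity read by fluorescence.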 It is filed as functional. Conditions: Homo sapiens.
Assay [20] has as its system HEK293. Put plainly: NOD2 signaling inhibitors in MDP-stimulated cells, cell-based, uHTS, luminescence (AID 2001). The note with it: Homo sapiens. It is filed as functional.
The target of a further assay is Melanocortin receptor 4 (Homo sapiens, UniProt P32245). It is filed as functional, cell-based.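 Note: Cell-based assay with luminescence read-out, confirmatory dose-response testing for agonist activity of biased ligands at MC4R; human U2OS cells with tagged receptor and beta-arrestin; potency of agonists that increase receptor coupling to beta-arrestin.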
The target in assay [21] is T4, DNA repair protein RAD52 homolog (Homo sapiens, UniProt P43351).
T4 sequence (P43351 whole entry): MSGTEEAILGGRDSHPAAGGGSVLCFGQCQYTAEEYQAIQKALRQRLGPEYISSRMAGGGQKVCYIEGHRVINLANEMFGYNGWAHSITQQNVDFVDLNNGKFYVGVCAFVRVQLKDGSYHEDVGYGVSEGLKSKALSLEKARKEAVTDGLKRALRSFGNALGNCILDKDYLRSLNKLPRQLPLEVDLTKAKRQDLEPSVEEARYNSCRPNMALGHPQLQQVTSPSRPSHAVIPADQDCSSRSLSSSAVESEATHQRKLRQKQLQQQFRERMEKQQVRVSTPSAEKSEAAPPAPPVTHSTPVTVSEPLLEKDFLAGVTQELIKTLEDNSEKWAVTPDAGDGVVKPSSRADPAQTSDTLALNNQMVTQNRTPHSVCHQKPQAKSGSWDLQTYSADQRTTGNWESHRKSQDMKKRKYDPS
The format is functional, biochemical.

Assay [22] can be described thus: C. albicans growth with fluconazole, confirmation, fluorescence, retest (AID 2467). It is filed as functional, cell-based.

Each structure is given as a SMILES string. Calls of active or inactive are those of the source. Where only a bound is given, the exact number is not on record here.

Galanin receptor type 2, sequence (O43603 whole entry): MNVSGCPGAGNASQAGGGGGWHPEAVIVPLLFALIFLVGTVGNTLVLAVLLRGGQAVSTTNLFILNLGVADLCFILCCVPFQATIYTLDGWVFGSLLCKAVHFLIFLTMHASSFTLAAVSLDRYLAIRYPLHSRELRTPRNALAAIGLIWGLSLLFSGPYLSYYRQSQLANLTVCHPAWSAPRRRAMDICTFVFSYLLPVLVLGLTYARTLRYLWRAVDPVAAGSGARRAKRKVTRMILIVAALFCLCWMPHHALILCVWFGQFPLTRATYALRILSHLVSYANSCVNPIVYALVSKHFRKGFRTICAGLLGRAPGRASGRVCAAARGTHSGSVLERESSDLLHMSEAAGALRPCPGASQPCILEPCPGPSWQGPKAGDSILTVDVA
Melanocortin receptor 4, sequence (P32245 whole entry): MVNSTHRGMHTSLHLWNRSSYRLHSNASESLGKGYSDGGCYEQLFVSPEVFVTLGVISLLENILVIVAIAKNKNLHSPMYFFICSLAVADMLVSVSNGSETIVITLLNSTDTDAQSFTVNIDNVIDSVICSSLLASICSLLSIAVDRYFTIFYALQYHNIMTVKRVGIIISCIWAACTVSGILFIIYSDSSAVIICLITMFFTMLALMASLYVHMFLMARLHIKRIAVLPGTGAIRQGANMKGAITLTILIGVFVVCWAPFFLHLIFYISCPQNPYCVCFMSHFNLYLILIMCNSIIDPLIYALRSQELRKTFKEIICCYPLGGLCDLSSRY
Nucleotide-binding oligomerization domain-containing protein 2, sequence (Q9HC29 whole entry, the tested form may be a part): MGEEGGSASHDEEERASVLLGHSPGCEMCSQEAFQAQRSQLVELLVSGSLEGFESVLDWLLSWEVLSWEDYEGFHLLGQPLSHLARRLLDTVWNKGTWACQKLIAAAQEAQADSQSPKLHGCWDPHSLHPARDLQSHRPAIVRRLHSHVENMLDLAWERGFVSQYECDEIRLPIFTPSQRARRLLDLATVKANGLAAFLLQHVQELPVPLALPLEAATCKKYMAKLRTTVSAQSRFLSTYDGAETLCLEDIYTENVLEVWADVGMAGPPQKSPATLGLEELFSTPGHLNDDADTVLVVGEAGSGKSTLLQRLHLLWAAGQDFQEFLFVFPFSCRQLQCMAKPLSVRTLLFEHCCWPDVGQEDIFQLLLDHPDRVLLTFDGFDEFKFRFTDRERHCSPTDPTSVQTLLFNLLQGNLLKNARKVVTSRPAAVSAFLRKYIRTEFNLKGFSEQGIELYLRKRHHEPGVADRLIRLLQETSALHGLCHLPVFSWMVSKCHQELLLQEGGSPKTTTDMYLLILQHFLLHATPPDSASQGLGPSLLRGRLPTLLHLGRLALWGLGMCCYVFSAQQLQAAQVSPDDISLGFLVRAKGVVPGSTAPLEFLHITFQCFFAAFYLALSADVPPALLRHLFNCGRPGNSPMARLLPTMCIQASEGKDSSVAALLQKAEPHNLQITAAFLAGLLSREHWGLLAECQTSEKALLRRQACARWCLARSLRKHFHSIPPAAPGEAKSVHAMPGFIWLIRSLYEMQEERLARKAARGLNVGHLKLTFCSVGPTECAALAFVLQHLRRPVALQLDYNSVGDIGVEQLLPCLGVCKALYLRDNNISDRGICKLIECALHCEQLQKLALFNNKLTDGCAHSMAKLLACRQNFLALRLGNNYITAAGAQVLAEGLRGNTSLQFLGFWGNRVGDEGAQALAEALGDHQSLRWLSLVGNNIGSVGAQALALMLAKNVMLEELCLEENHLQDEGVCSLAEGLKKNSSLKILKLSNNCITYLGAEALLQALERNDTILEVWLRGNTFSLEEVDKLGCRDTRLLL
CAAX prenyl protease 1, sequence (P47154 whole entry): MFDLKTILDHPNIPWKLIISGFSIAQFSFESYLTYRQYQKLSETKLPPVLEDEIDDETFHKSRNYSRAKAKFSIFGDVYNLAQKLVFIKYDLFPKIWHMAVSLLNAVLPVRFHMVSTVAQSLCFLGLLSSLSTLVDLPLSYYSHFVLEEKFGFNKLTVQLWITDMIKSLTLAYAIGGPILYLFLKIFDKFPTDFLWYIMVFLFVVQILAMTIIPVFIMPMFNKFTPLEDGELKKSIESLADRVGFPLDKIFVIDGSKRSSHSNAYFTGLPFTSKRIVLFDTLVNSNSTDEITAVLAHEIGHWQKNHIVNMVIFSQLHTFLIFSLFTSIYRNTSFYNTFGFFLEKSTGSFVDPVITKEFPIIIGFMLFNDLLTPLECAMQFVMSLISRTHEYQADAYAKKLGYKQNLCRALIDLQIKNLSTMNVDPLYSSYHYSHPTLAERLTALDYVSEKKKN

In the case of `COC(=O)c1ccc(COC(=O)c2[nH]c(C)c(C(C)=O)c2C)o1`, the IC50 in assay [1] was 3.23 µM (active); at Galanin receptor type 2, > 42 µM (not active); in assay [2], 2.72 µM (active). Also, the concentration at half-maximal activity (AC50) was 2.46 µM (active) in assay [3] and 2.58 µM (active) in assay [4].
In the case of `CCC(C)(C)c1ccc(OCCCC[n+]2cccc(C)c2C)c(C(C)(C)CC)c1`, the IC50 in assay [5] is 56.1 µM (inactive); with HEK293 [6], > 20 µM (inactive); in assay [9] it was 20.2 µM (active); in the assay on HEK293 [12], 3.2 µM (active); in [15] it was > 20 µM (inactive); in the assay on HEK293 [18], 6.37 µM (active). The half-maximal inhibitory concentration (IC50) with HEK293 [20] is 2.48 µM (active). Also, the concentration giving a half-maximal response (EC50) in the assay on BJ [7] is 5.09 µM (active); in [8] it was > 160 µM (inactive); in the assay with HEK293 [10], 4.56 µM (active); in assay [11], 5.62 µM (active); in the assay on BJ [13], 3.96 µM (inconclusive); in assay [14], 8.15 µM (active). In addition, the 50% effective concentration (EC50) in the assay with BJ [17] was 4.18 µM (inconclusive); in the assay on BJ [19], 2.48 µM (active); at Melanocortin receptor 4 it was > 3.3 µM (active); in assay [22], 0.67 µM (active). In addition, the AC50 at CAAX prenyl protease 1 was 9.82 µM (active); on CAAX prenyl protease 2 it was 8.03 µM (active); in assay [16], 5.38 µM (active); with INS1, 0.632 µM (active); in assay [21] it was 31.2 µM (active).

For orientation: IC50 means the midpoint of a concentration-inhibition curve. A word on the AC50: it is the concentration at which the activity in the assay is half-maximal. In general, EC50 refers to the concentration that produces a half-maximal response.

For the origin of these results see ChEMBL document CHEMBL1201862, “PubChem BioAssay data set” (2004).
